From a melting point compilation (Tetko et al.; mined from patent text by program, amines drawn as free bases though some values may be those of a salt)

Row | melting point [°C] | SMILES
1 | 135 to 138 | CCCNC(=O)CC1(C)Cc2c(C)c(N3CCN(c4ccc(OC)cc4)CC3)c(C)c(C)c2O1 (stereo not drawn)
2 | 134 to 138 | COC(=O)C=C(Nc1coc2cc(OC)ccc2c1=O)C(=O)OC
3 | 104 to 106 | CCc1nc(C2CC2)c[nH]1
4 | 205 | COc1ccc(-c2csc(NN=Cc3cn(Cc4ccc(Cl)cc4Cl)c4ccccc34)n2)cc1OC
5 | 102 to 106 | O=P1(c2cccc(C(F)(F)F)c2)OCc2ccccc21 (stereo not drawn)
6 | 203 | Cc1nc(C)c(Cl)c(NCc2ccc(Oc3ccc4ncc([N+](=O)[O-])n4n3)cc2)n1
7 | 234 to 235 | CC12CCCc3cc(N(CC4CC4)c4ccc(C(=O)O)cc4)cc(c31)CCC2
8 | 202 to 204 | O=C(O)c1ccccc1-c1nc(-c2ccc(Cl)c(Cl)c2)no1
9 | 191 | CC(C(=O)N1CCCc2ccccc21)N(C(=O)CN1C(=O)c2ccccc2C1=O)c1ccccc1 (racemic)
10 | 190 to 192 | COc1cc(COc2cccc3c2CN(C2CCC(=O)NC2=O)C3=O)ccc1OCCN(C)C (stereo not drawn)
11 | 313 | O=C(O)c1ccc(C(=O)O)c(Cl)c1
12 | 191 to 194 | O=CN1CCN(C2=C(Cl)C(=O)c3nsnc3C2=O)CC1
13 | 179 to 180 | N#CCCNC(=O)c1cccc(-c2ccc3c(c2)N(Cc2cc(Cl)cc(Cl)c2)CC3)c1
14 | 150 to 151 | Cc1cc2c(s1)SCCc1cc(=O)n(-c3ccc(Cl)cc3)nc1-2
15 | 206 | CC(C(N)=O)C(=O)Nc1ccc(OCc2cccc(F)c2)cc1 (stereo not drawn)
16 | > 300 | CC1(C)CC1(N)C(=O)OCC(CO)OCn1cnc2c(=O)[nH]c(N)nc21 (stereo not drawn)
17 | 131 | CCCCc1ccc(C(=O)Nc2ccc3cc(CN4CCCC4)cnc3c2C)cc1
18 | 119 to 120 | Cn1c(CO)nc2ccc(Sc3ccccc3)nc21
19 | 82 to 84 | Cc1cc(Br)cnc1CCCCNc1ncc(Cc2cccnc2)cc1[N+](=O)[O-]
20 | 158 to 161 | Nc1ncc(CCN2CCN(c3ccccn3)CC2)s1
21 | 159 to 162 | C=C(c1ccc(OC)cc1)c1ccc(N2CCCC2)cc1
22 | 123 | CC(=O)Nc1ccc(OC(F)(F)F)cc1Br
23 | 178 to 180 | CCNC(=O)Nc1n[nH]c2ccc(-c3ncccc3Cl)cc12

Row | melting point [°C] | SMILES
24 | 234 | COc1ccc(N(C)c2nc(N)nc3[nH]c4ccccc4c23)cc1
25 | 77 to 78 | COc1ccc(C2CCCC(=O)N2c2ccccc2)cc1 (stereo not drawn)
26 | 122 to 126 | O=C1N(CC2OC(O)C(O)C(O)C2O)c2ccccc2C12COc1cc3c(cc12)OCCO3 (stereo not drawn)
27 | 56 to 58 | CC(C)[C@H](C[C@H](N=[N+]=[N-])[C@@H]1C[C@@H](C(C)C)C(=O)O1)C(=O)O
28 | 186 to 188 | CCOCc1nc2c(N)nc3cc(-c4cncc(OC)c4)ccc3c2n1CC(C)(C)OCCS(C)(=O)=O
29 | 238 to 240 | CCCOc1ccccc1-c1[nH]c(=O)c(C(N)=O)cc1C
30 | 175 to 177 | CCN(CC)C(=CC(=O)OC)N1C(=O)C(=[N+]=[N-])c2ccccc21
31 | 71 to 73 | Cc1cc(C#C[Si](C(C)C)(C(C)C)C(C)C)n(-c2ccc([N+](=O)[O-])cc2)n1
32 | 127 | COC(=O)c1ccc(Cc2cc3cc(Cl)ccc3n2S(=O)(=O)c2ccc(C(C)C)cc2)cc1F
33 | 125 to 126 | COc1cccc(C(C[N+](=O)[O-])C2CCCCC2=O)c1 (racemic)
34 | 146 | CC(C)c1ccc(C2NCCc3c2[nH]c2ccccc32)cc1 (stereo not drawn)
35 | 91 to 93 | CCOC(=O)N(C)CC(N)=S
36 | 72 to 77 | COC(=O)c1ccc2c(c1)C=CC(=CCl)CO2
37 | 146 to 149 | CCN(CCCOc1ccc(C(=O)O)cc1)c1ccc(Cl)cc1
38 | 74 to 77 | CSc1nc(F)cc2nnc(SCc3ccccc3)n12
39 | 161 to 162 | COC(=O)c1ccccc1COc1ccc(-c2cc(O)c(SCCc3ccccc3)c(=O)o2)cc1
40 | 153 | CCC1CC(=O)N(Cc2cccc(C(=O)NC3CCCC3)c2)N=C1c1ccc(OC)c(OC2CCCC2)c1 (stereo not drawn)
41 | 175 to 178 | Cc1nc(-n2cc(-c3ccccc3)nn2)sc1C(=O)NCc1ccccc1
42 | 76 to 78 | CCOC(=O)OC(C)OC(=O)c1cc(-c2ccc(F)cc2F)ccc1O (stereo not drawn)
43 | 146 to 149 | COC(=O)/C=C/CSc1nc(N)cc(Cl)n1
44 | 250 to 251 | CCCN(CCC)C1Cc2cc3c(cc2C1)C(=O)N(c1ccc(C#N)cc1)C3=O
45 | 47 to 49 | CCOC(=O)c1ccc2c(c1)CC(Cc1cncs1)C2 (stereo not drawn)
46 | 180 | CCN(CC)C(=O)CO/N=C(\C(=O)O)c1csc(N)n1

Row | melting point [°C] | SMILES
47 | 280 to 281 | CCC(=C(c1ccc(O)cc1)c1ccc(O)cc1)c1ccc(/C=C/C(=O)O)cc1
48 | 204 to 206 | Nc1cc(C(c2cc(F)ccc2F)S(=O)(=O)c2ccc(Cl)cc2)c(Br)cn1 (stereo not drawn)
49 | 115 to 116 | CN1CCP(=O)(c2ccccc2)CC1
50 | 203 to 205 | NC(=O)c1nnn(Cc2ccc(C(=O)c3ccc(Cl)cc3)c(Cl)c2)c1N
51 | > 260 | NC(=O)c1cc2ncccc2n1-c1ccc([N+](=O)[O-])cc1
52 | 128 to 130 | O=C1c2ccccc2-c2c1c1ccccc1c(=O)n2CCCCCCCCCCNS(=O)(=O)c1ccccc1
53 | 35 to 36 | CCOC(=O)CCCN=c1sc2ccccc2s1
54 | 142 to 144 | CC(C)c1cccc(C(C)C)c1N=c1cccc(-c2ccccc2)[nH]1
55 | 225 to 227 | CC(=O)OC[C@@H]1O[C@H](n2c(NC(C)C)nc3c(Cl)cccc32)[C@@H](OC(C)=O)[C@H]1OC(C)=O
56 | 92 to 94 | COc1cc(O)c(C(=O)c2ccccc2)c(Cl)c1
57 | 216 | Cc1nc(NC(=O)Nc2ccccc2)n(C)c(=O)c1CCN1CCN(c2noc3ccccc23)CC1
58 | 106 to 108 | C[C@@H](O)c1nccc(N2CCN(c3cnc4ccccc4n3)CC2)n1
59 | 156 | O=C(c1ccccc1)N(CCN1CCC(Nc2nc3ccccc3n2Cc2ccc(F)cc2)CC1)c1nccs1
60 | 213 | CCOc1ccccc1C1CC(C(C)(C)C)=NN1c1ccc(C(=O)O)cc1 (stereo not drawn)
61 | 81 to 82 | C#Cc1ccc2ccc(OC(CC)C(=O)NC(C)(C)CO)cc2c1 (stereo not drawn)
62 | 230 to 233 | O=C1Nc2cc(F)ccc2C1c1ncnc2c1cnn2C1CCCC1 (stereo not drawn)
63 | 180 to 183 | CCOC(=O)c1c(CCCCc2nccn2C)nc2cc(OC)c(OC)cc2c1-c1ccc(OC)c(OC)c1
64 | 185 | CCCn1nc(SCCCCC(=O)O)c(C(=O)O)c1Cc1cc2c(cc1Cl)OCO2
65 | 199 | Cc1cccc(NC(=O)NCC(=O)N2[C@@H](C(=O)OC(C)(C)C)C[C@@H](C(=O)N(C)C)[C@H]2c2ccccc2)c1 (racemic)
66 | 71 to 72 | Cc1ccc(C(C)(C)C)c(O)c1C(=O)Oc1ccccc1
67 | 68 to 83 | COC[C@@H](OC)[C@@H](OC)[C@H](OC)[C@H](CN(C)C(=O)c1ccc2n1Cc1ccccc1N(C(=O)c1ccc(C3=CCCCC3)c(C)c1)C2)OC
68 | 251 | COc1cc2c(cc1-c1cc(F)ccc1F)NC(=O)CC(c1cccc(C#N)c1)=N2
69 | 216 to 218 | CC(C)(C)n1cc(C#N)c2cc([N+](=O)[O-])cnc21

Row | melting point [°C] | SMILES
70 | 82.4 to 84 | O=C(C[C@H](NC(=O)C(F)(F)F)C(=O)O)c1ccc(F)cc1F
71 | 170 | CCOC(=O)/C=C/c1ccc(OCCOC)cc1NC(=O)c1ccc(Cl)cc1Cl
72 | > 300 | COc1cc(OC)c2c(=O)[nH]c(-c3ccc(OCCO)c(-c4ccc(S(C)(=O)=O)cc4)n3)nc2c1
73 | 140 to 141 | CC12C=CCC1C1CCC3CC(=O)CCC3(C)C1CC2 (stereo not drawn)
74 | 210 to 211 | Cn1c(COc2ccc(CC3SC(=O)NC3=O)cc2)nc2ccc(OCc3ccccc3)nc21 (stereo not drawn)
75 | 147 to 150 | CCc1nc(Cl)cc(NN)n1
76 | 158 | CCS(=O)c1cc(C(=O)O)c(OC)cc1N (stereo not drawn)
77 | 260 to 262 | CS(=O)(=O)c1ccc(C(=O)NCc2ccc3c(c2)CN(C2CCC(=O)NC2=O)C3=O)cc1 (stereo not drawn)
78 | 146 to 149 | O=C(C=Cc1cc(O)c(O)cc1O)OCCc1ccccc1
79 | 189 | CC(SC1COC(C2([N+](=O)[O-])C=CC(C(=O)Nc3ccccc3)=CC2)OC1)C(O)(Cn1cncn1)c1ccc(F)cc1F (stereo not drawn)
80 | 203 to 204 | CCCOc1ccccc1-c1nc(N)c(NC(=O)C(F)(F)F)c(=O)[nH]1
81 | 73 to 74 | CCC(C)OS(=O)(=O)c1ccc(C(=O)c2cc(Cl)ccc2Cl)cc1 (stereo not drawn)
82 | 178 to 182 | COc1cc2c(cc1OC)C(C)=[N+]([O-])C(c1ccccc1)N2 (stereo not drawn)
83 | 181 | CCOC(=O)CCCOc1ccc2nc3c(cc2c1)CC(=O)N3
84 | 192 to 199 | COc1ccc(-c2nc3cnc4ccccc4c3n2CC(C)C)cc1OC
85 | 248 to 255 | O=C(NC(Cc1ccccc1)C(=O)O)c1cc2cc(Cl)ccc2[nH]1 (stereo not drawn)
86 | 158 | COc1ccc(CN=C(Cc2ccccc2)N2CC3C(=O)CCC(c4ccccc4)(c4ccccc4)C3C2)cc1 (stereo not drawn)
87 | 137 to 138 | CCCCn1cc(S(C)=O)c(=O)c2sccc21 (stereo not drawn)
88 | 115 to 116 | CC(=O)N1CCCC(=O)c2c(Cl)cccc2CCC1=O
89 | 47 to 48 | COC(=O)CCc1ccc(OCCSCCO)cc1
90 | > 300 | CNC(=O)c1c(I)c(C(=O)O)c(I)c(C(=O)NC)c1I
91 | 97 to 97.5 | CC(=O)c1ccc(-c2ccccc2)c(F)c1

Row | SMILES | melting point [°C]
92 | CC12CC3OC3CC1CCC1C2CCC2(C)C(O)C(N3CCCCC3)CC12 (stereo not drawn) | 153 to 165
93 | Nc1cccc2c1CCNC2 | 153 to 154
94 | C=CCN(C)C1(C#N)CCC2(CC1)OCCO2 | 47 to 50
95 | CN(C)C(=O)Cc1ccc(CNC(=O)[C@@H](CCCNC(N)=N[N+](=O)[O-])NC(=O)C(c2ccccc2)c2ccccc2)cc1 | 198 to 200
96 | S=C1CN=C(c2ccccn2)c2cc(Cl)ccc2N1 | 217 to 218
97 | CCOC(=O)c1c2n(c3cc(N4CCNCC4)c(F)cc3c1=O)C(C)S2 (stereo not drawn) | 224
98 | CC(C)=Cc1cn(-c2c(Cl)cc(C(F)(F)F)cc2Cl)nc1C#N | 72 to 74
